This passage reports IC50 results from ChEMBL document CHEMBL3600345, “Docking of competitive inhibitors to the P2X7 receptor family reveals key differences responsible for changes in response between rat and human” (Bioorg Med Chem Lett, 2015).

The target in assay [1] is T1, P2X purinoceptor 7 (Rattus norvegicus, UniProt Q64663).
T1 sequence (Q64663 whole entry): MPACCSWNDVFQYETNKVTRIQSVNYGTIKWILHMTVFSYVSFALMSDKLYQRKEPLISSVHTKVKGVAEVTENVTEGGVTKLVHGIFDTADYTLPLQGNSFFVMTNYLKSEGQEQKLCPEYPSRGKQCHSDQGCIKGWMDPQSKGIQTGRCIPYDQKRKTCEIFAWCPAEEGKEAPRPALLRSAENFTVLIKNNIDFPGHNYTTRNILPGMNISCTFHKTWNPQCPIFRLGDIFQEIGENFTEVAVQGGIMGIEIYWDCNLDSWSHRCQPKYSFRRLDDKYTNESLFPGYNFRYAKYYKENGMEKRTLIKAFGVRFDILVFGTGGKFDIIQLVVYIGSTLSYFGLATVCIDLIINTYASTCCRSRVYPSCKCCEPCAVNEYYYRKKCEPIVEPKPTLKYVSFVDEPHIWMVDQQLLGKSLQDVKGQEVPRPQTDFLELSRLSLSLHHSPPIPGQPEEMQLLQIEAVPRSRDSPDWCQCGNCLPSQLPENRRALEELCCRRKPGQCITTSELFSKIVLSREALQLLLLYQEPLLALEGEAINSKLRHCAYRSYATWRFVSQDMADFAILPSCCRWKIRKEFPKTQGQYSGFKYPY
Description: Inhibition of rat P2X7 receptor.

The target of the next assay is T2, P2X7 purinoceptor (Canis lupus familiaris, UniProt Q64F92).
T2 sequence (Q64F92 whole entry): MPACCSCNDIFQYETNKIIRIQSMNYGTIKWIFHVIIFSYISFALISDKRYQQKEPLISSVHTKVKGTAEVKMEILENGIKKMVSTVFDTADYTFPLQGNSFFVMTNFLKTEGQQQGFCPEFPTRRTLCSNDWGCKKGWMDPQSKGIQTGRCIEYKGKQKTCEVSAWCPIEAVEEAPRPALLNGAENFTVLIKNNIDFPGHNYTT
Description: Inhibition of dog P2X7 receptor.

A short description of assay [2]: Inhibition of rhesus macaque P2X7 receptor. Also noted: species or system Macaca mulatta.
The target of the next assay is T3, P2X purinoceptor (Cavia porcellus, UniProt A9QW74).
T3 sequence (A9QW74 whole entry): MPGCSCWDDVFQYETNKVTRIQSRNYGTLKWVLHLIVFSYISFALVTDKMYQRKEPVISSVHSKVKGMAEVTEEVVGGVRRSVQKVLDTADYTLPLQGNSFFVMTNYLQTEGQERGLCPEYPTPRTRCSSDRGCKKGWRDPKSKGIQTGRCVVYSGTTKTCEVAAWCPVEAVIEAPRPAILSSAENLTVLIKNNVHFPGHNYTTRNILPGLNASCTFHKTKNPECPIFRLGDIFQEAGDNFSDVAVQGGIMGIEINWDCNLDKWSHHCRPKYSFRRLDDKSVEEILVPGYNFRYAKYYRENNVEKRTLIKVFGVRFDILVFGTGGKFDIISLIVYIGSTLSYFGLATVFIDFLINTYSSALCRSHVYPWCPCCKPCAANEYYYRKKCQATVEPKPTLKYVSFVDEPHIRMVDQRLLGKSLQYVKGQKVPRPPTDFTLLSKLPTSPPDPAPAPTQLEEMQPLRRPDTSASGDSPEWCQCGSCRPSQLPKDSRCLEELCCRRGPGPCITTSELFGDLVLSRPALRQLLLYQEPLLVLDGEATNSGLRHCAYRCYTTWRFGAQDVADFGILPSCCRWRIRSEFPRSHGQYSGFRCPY
Description: Inhibition of guinea pig P2X7 receptor.

The target of assay [3] is T4, P2X purinoceptor 7 (Homo sapiens, UniProt Q99572).
T4 sequence (Q99572 whole entry): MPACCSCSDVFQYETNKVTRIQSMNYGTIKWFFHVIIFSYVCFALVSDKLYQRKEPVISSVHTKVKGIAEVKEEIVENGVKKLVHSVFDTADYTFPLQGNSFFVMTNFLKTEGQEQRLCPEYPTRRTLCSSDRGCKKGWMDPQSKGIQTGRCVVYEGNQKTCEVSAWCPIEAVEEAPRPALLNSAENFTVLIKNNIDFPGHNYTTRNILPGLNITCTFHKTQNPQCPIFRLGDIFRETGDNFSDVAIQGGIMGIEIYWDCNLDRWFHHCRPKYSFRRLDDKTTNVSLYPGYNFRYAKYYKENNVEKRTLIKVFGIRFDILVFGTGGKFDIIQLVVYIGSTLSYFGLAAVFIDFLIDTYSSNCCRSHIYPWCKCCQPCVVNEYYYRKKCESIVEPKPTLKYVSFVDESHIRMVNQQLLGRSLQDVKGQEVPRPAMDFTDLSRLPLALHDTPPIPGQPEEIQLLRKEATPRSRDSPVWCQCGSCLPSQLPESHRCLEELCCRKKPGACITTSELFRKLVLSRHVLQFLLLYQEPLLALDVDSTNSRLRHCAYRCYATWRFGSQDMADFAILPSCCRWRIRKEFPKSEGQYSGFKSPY
Description: Inhibition of human P2X7 receptor.

As to `CN([C@@H](Cc1ccc(OS(=O)(=O)c2cccc3cnccc23)cc1)C(=O)N1CCN(c2ccccc2)CC1)S(=O)(=O)c1cccc2cnccc12`, the IC50 against P2X purinoceptor 7 [1] is above 100000 nM; against P2X7 purinoceptor it was 10 nM; in assay [2] it was 86 nM; against P2X purinoceptor, 130 nM; at P2X purinoceptor 7 [3], 100 nM.
In the case of `O=C1CSC(=O)N1C(CCc1ccncc1)COc1ccc(-c2cccc([N+](=O)[O-])c2)cc1` (stereo not given), the IC50 was above 100000 nM against P2X purinoceptor 7 [1], 23 nM in assay [2] and 31 nM against P2X purinoceptor 7 [3].
Turning to `C[S+]([O-])c1ccc(-c2nc(-c3ccncc3)c(-c3ccc(F)cc3)[nH]2)cc1` (stereo not given) [SB-203580], the values for the IC50 at P2X purinoceptor 7 [1] and at P2X purinoceptor 7 [3] were above 30000 nM and 5000 nM, respectively.
